Assay results: PubChem BioAssay (NCI)
Where “and” joins values, the source holds several entries; their conditions need not be identical. Identical values can stand only once.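 Method: 48-hour compound exposure of cells in 96-well plates, five concentrations, linear interpolation of endpoints. GI50 = concentration required for 50% inhibition of growth. TGI marks complete inhibition of growth.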

Legend:
Experiment in all cases: inhibition of tumour cell growth, NCI panel, 48 h
[1] = test system: NCI-H226 lung
[2] = test system: ACHN renal
[3] = test system: NCI-H522 lung
[4] = test system: IGROV1 ovarian
[5] = test system: OVCAR-3 ovarian
[6] = test system: M14 melanoma
[7] = test system: SK-MEL-28 melanoma
[8] = test system: SK-OV-3 ovarian
[9] = test system: SK-MEL-2 melanoma
[10] = test system: DU-145 prostate

Compound	TGI [1]	TGI [2]	TGI [3]	TGI [4]	TGI [5]	TGI [6]	TGI [7]	TGI [8]	TGI [9]	GI50 [1]	GI50 [2]	GI50 [10]	TGI [10]	GI50 [3]	GI50 [5]	GI50 [6]	GI50 [7]	GI50 [8]	GI50 [4]	GI50 [9]
CC1(C)C(=O)C(C)(C)C1=NNC(N)=S	> 100 µM	> 100 µM	> 100 µM	> 100 µM	> 100 µM	> 100 µM	> 100 µM	> 100 µM												
c1ccc2c(c1)Cc1c(Cc3csc4ccccc34)ccc3cccc-2c13		> 100 µM	> 100 µM	> 100 µM	> 100 µM	> 100 µM	> 100 µM		> 100 µM											
Clc1ccc2c(c1)N(C1CCCN(Cc3ccccc3)C1)c1ccccc1S2 (stereo unspecified)	> 100 µM	> 100 µM	6.3 µM		24.4 µM	4.41 µM	> 100 µM	> 100 µM		22.6 µM	7.22 µM	4.03 µM	19.7 µM	2.13 µM	3.27 µM	2 µM	7.69 µM	3.36 µM		
CN(C)Cc1ccc(NC(=O)c2cncc(C#Cc3cnc(N)c4ncccc34)c2)cc1F		11.4 µM	53.9 µM	3.96 µM	3.68 µM		3.46 µM		35.3 µM		3.28 µM	1.77 µM	3.32 µM	17.2 µM	2.07 µM		1.85 µM		2.13 µM	14 µM
N#Cc1nc(C#N)c(Sc2ccccc2)c(Sc2ccccc2)c1Sc1ccccc1		1.79 µM	0.645 µM	2.3 µM	2.89 µM		2.89 µM	9.01 µM	> 21.6 µM	2.42 µM	0.395 µM	0.667 µM	2.88 µM	0.208 µM	1.45 µM		1.48 µM	3.27 µM	0.732 µM	2.17 µM
O=C(CCC(=O)Nc1cccc(C(F)(F)F)c1)CC(=O)c1ccc2ccccc2c1	> 100 µM	> 100 µM	> 100 µM	> 100 µM	> 100 µM	> 100 µM		> 100 µM	> 100 µM											
CC1=CP(=O)(c2ccccc2)C=C(C)C1=C(Cl)Cl (stereo unspecified)	9.68 µM		7.23 µM	34.1 µM	30.9 µM	17.9 µM	23.4 µM	72.3 µM												
CC(C)COC1Sc2ccccc2S1		30 µM		32.3 µM	34.2 µM	52.4 µM	33.7 µM	43.2 µM												
O=C(Nc1cc(F)c(F)cc1C(=O)O)c1ccc(-n2ccnc2)nn1	> 100 µM	> 100 µM		> 100 µM	> 100 µM	> 100 µM	> 100 µM	> 100 µM	> 100 µM	> 100 µM	> 100 µM	> 100 µM	> 100 µM		42.4 µM	> 100 µM	> 100 µM	> 100 µM	> 100 µM	> 100 µM
COc1ccc2c(c1)CCc1cc(OC)ccc1/[N+]([O-])=[N+]\2[O-]		26.3 µM	13.7 µM	35 µM	33.9 µM	> 46.4 µM	34.1 µM	35.6 µM	43.8 µM				38.1 µM							
C(=C\C(Sc1ccccc1)c1ccccc1)/NNC1=NC(c2ccccc2)C(c2ccccc2)=NN1 (stereo unspecified)	> 100 µM	> 100 µM	> 100 µM	> 100 µM	> 100 µM	> 100 µM	> 100 µM	> 100 µM	> 100 µM											
O=C(Nc1cc(Cl)ccc1O)c1cccc(Nc2ccnc(C(F)(F)F)c2)c1	39.5 µM	81.2 µM		33.9 µM	10.4 µM	18.3 µM	19.1 µM	25.3 µM		4.84 µM	2.13 µM	5.22 µM	22.6 µM		2.73 µM	3.85 µM	6.15 µM	3.3 µM	7.47 µM	
N#CC1(C#N)C=CC(=C2OCC3CCCN23)C=C1 (stereo unspecified)	> 100 µM	> 100 µM	> 100 µM	> 100 µM		> 100 µM		> 100 µM	> 100 µM											
O=C(Nc1ccc(Cl)cc1C(=O)O)c1ccc([N+](=O)[O-])cc1	72.2 µM	49.6 µM		45.5 µM	56.6 µM	60.8 µM	97.2 µM	56.5 µM	16.9 µM											
CCCc1nc(Cl)c(Cl)c(Cl)n1	> 94.6 µM		30.5 µM	50.4 µM	18.7 µM	> 76.1 µM	> 100 µM	> 100 µM					> 100 µM							
CCC(C)C1=C(O)[N+]2([O-])Oc3ccc(C4=C(O)C(=O)C(c5ccc(O)cc5)=C(O)C4=O)cc3OC2(C(C)CC)C(=O)N1O (stereo unspecified)	> 100 µM	> 100 µM	> 100 µM	> 100 µM	49.1 µM	11.5 µM	> 100 µM			3.81 µM	11.6 µM	30.9 µM	> 100 µM	19 µM	5.39 µM	2.75 µM	85.7 µM		17 µM	
CCOC(=N)CC(=O)Nc1ccccc1	> 31.6 µM	> 46.4 µM	> 100 µM	> 46.4 µM	> 31.6 µM	> 46.4 µM	> 46.4 µM	> 100 µM	> 31.6 µM											
COc1cc2c(c(OC)c1OC)-c1ccc(SC)c(=O)cc1[C@@H](NC(=O)C(F)(F)F)CC2		> 72.3 µM	< 0.01 µM	> 100 µM	1.3 µM	42.5 µM	17.8 µM						> 100 µM							
COCCc1n(Cc2ccc3ccccc3c2)c2ccccc2[n+]1Cc1ccc2ccccc2c1		2.99 µM			1.72 µM		1.97 µM	2.59 µM			1.61 µM	1.06 µM	2.33 µM		0.451 µM		0.567 µM	1.28 µM		
Oc1ccc2ccccc2c1C=NCc1c(O)ccc2ccccc12		> 100 µM	50.5 µM	> 100 µM	> 100 µM	> 100 µM	> 100 µM	> 100 µM	> 100 µM				> 100 µM							

Compound	TGI [1]	TGI [2]	TGI [3]	TGI [4]	TGI [5]	TGI [6]	TGI [7]	TGI [8]	TGI [9]	GI50 [1]	GI50 [2]	GI50 [10]	TGI [10]	GI50 [3]	GI50 [5]	GI50 [6]	GI50 [7]	GI50 [8]	GI50 [4]	GI50 [9]
O=C(CC1C(=O)Nc2ccccc2S1(=O)=O)Nc1ccc(Cl)cc1 (stereo unspecified)	> 100 µM	71.9 µM	36.4 µM	37.7 µM	39.4 µM	> 100 µM	74.5 µM		65.3 µM											
CCCCCCCCCCCCN=C(N)c1ccc(N2CCN(c3ccc(C(N)=NCCCCCCCCCCCC)cc3)CC2)cc1	29.9 µM	> 50 µM	31.2 µM		20.7 µM	16.4 µM	26.9 µM	34.1 µM	> 50 µM	12.9 µM	20.7 µM	3.57 µM	14.3 µM	3.42 µM	8.66 µM	7.82 µM	13.3 µM	19.5 µM		17.5 µM
CC(=O)NNc1nc(C)c(C(=O)NNC(=O)C(=O)Nc2c([N+](=O)[O-])ccc(C)c2C)s1	> 100 µM	> 100 µM	> 100 µM	> 100 µM	> 100 µM	> 100 µM	> 100 µM		> 100 µM											
CCCCCCCCCCCCCCCC(=O)OCCOCCOCCOCCOCCOC(=O)CCCCCCCCCCCCCCC	> 100 µM	> 100 µM	> 100 µM	> 100 µM	> 100 µM	> 100 µM	> 100 µM	> 100 µM	> 100 µM											
O=C1C=C(OCC=C(C(F)(F)F)C(F)(F)F)c2ccccc2C1=O		4.01 µM	2.92 µM		3.39 µM	3.87 µM	3.61 µM	12 µM	4.06 µM		1.85 µM	1.75 µM	3.17 µM	1.41 µM	1.78 µM	1.88 µM	1.87 µM	3.45 µM		1.85 µM
O=C(N/C(=C\c1ccccc1O)c1nc2ccccc2[nH]1)c1ccccc1		> 100 µM	> 100 µM	> 100 µM	> 100 µM	> 100 µM	> 100 µM	> 100 µM	> 100 µM											
NCCCNc1nc2ccccc2c2c(=O)c3cccc(Cl)c3sc12		2.79 µM	3.6 µM			3.06 µM	3.29 µM	2.92 µM	3.81 µM		1.41 µM	1.74 µM	3.46 µM	1.76 µM		1.61 µM	1.81 µM	1.45 µM		1.88 µM
CC1C=CC(C(N)C(=O)O)O1 (stereo unspecified)	> 100 µM	> 100 µM	> 100 µM	> 100 µM	> 100 µM	> 100 µM	> 100 µM	> 100 µM	> 100 µM											
CC1=C(C(=O)Nc2ccc(F)c(Cl)c2)C(c2cccc(Oc3ccccc3)c2)NC(=S)N1 (stereo unspecified)		36.1 µM	24.3 µM	37 µM	28.6 µM	27.3 µM	25.9 µM	43.3 µM	27.2 µM		12.3 µM	21.2 µM	> 50 µM	8.57 µM	11.3 µM	12 µM	8.89 µM	15.9 µM	10.6 µM	9.72 µM
CCCCNC(=S)OCCC(C)CCCC(C)C (stereo unspecified)		> 100 µM		> 100 µM		> 100 µM	> 100 µM	> 100 µM	> 100 µM											
CC(=O)c1ccccc1NC(=O)C(=O)C(C(=O)c1ccccc1-c1ccccc1)C1OC(=O)c2ccccc21 (stereo unspecified)	36.2 µM	51.2 µM	31 µM	54.3 µM	48.1 µM	35.4 µM		> 100 µM	40.5 µM											
NS(=O)(=O)c1ccc(NC(=O)C2C(=O)C(=O)N(c3ccc(S(N)(=O)=O)cc3)C2=O)cc1 (stereo unspecified)	> 100 µM	> 100 µM	> 100 µM	> 100 µM	> 100 µM	> 100 µM	> 100 µM	> 100 µM	> 100 µM											
CCOC(=O)c1[nH]c2cc(OC)c(OC)cc2c1CN(C)C	> 100 µM	> 100 µM		> 100 µM		> 100 µM	> 100 µM	> 100 µM	> 100 µM											
O=C1C=C2CCCC2C(C(=O)O)(C(=O)O)C1 (stereo unspecified)			> 100 µM	> 100 µM	> 100 µM	> 100 µM	> 100 µM	> 100 µM	> 100 µM											
Cc1ccc(N=C2N=C(N3CC(C)OC(C)C3)c3ccccc32)cc1 (stereo unspecified)	> 100 µM	> 100 µM		88.8 µM	73.4 µM	56.5 µM	87.2 µM		70.4 µM											
COc1c(I)c(OC)c2c(c1I)O[C@@H]1OCC[C@H]21	> 100 µM	> 100 µM		> 100 µM	91.7 µM	50.5 µM	97 µM	> 100 µM	41.2 µM											
COc1ccc2c(c1)/C(=C\c1c(-c3cc(OC)ccc3OC)nc3sccn13)C(=O)N2	54.2 µM	9.74 µM		2.73 µM	14.3 µM	3.09 µM	2.81 µM	24.6 µM	4.2 µM	11.8 µM	2.37 µM				6.38 µM and 3.51 µM	7.14 µM and 1.71 µM	1.49 µM	9.29 µM	0.697 µM	1.77 µM
Cc1ccc(/C=C/C(=O)c2sc(-n3nc(-c4ccccc4)cc3-c3ccccc3)nc2C)cc1	> 100 µM	> 100 µM	> 100 µM	> 100 µM	> 100 µM		> 100 µM	> 100 µM	> 100 µM											
COc1cc2ncnc(Nc3ccc(Oc4ccnc(C)c4)c(C)c3)c2cc1NC(=O)CC1CCSS1 (stereo unspecified)	> 12.9 µM	8.48 µM	2.19 µM	> 50 µM	1.6 µM			1.63 µM	1.91 µM	1.68 µM	1.49 µM	1.44 µM	6.31 µM	0.861 µM	0.853 µM			0.854 µM	1.54 µM	0.904 µM
CCc1cc2c(O)c(c1)Cc1cc(CC)cc(c1O)Cc1cc(CC)cc(c1O)Cc1cc(CC)cc(c1O)Cc1cc(CC)cc(c1O)Cc1cc(CC)cc(c1O)Cc1cc(CC)cc(c1O)C2		> 100 µM	> 100 µM	> 100 µM	> 100 µM	> 100 µM	> 100 µM		> 100 µM											
